Assay results reported in US20260335323A1, “CHIMERIC MOLECULE” (UCL Business Ltd, priority 2023, published 2026).

Tests used:
[1] = molecular target: T1, ULK1 (Homo sapiens, UniProt O75385); assay: in vitro kinase assay measuring ATP consumption; type: biochemical; details: versus BL-918
T1 sequence (O75385 1-1050): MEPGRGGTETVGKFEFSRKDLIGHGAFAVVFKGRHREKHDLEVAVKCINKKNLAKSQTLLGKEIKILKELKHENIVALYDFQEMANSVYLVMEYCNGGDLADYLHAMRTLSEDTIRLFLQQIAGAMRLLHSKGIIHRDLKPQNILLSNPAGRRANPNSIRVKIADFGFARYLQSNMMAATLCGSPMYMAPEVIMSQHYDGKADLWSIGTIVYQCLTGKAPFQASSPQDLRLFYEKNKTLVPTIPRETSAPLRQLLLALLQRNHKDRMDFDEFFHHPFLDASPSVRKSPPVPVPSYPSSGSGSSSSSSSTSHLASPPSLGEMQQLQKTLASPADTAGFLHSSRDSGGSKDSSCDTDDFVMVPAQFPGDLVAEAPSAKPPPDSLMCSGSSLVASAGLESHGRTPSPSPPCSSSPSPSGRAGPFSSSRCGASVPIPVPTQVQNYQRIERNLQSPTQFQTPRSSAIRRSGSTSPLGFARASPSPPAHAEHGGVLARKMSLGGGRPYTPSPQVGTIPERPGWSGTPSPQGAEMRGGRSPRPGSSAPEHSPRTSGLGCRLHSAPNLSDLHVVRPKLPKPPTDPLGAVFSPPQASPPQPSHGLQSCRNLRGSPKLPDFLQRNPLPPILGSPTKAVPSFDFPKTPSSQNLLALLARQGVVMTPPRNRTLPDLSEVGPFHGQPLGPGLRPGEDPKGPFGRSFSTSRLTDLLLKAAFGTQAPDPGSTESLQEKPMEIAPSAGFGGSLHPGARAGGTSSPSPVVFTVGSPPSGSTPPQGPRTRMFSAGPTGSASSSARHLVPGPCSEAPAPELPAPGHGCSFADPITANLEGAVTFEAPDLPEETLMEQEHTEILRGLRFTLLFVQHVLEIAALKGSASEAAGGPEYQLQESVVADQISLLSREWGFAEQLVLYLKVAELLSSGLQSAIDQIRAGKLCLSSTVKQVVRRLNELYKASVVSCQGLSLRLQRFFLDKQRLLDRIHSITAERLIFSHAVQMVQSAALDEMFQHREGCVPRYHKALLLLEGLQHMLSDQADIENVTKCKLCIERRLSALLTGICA
From the text: Next, we designed a chimeric compound composed of a BL-918 derivative (referred to as NZ-60 herein) as our autophagy activator linked to the TSPO ligand as our targeting warhead to the outer mitochondrial membrane, utilising Huisgen-Sharpless click chemistry for the key linkage step^38-41. We designed a chemical synthesis route in 9 steps to produce two ULKTACs, NZ-65 and NZ-66. NZ-65 employs a polyethylene glycol (PEG) linker while NZ-66 uses a six carbon hexane linker (FIG. 3A). The resulting molecules were >99% pure as verified by LCMS. […] Importantly, key interactions shown to be necessary for the activation of ULK1 in its kinase domain, namely, Arg18, Lys50, Asn86 and Tyr89^8, appear to be maintained.

[2] = tested on: LC3; assay: ATP5a/LC3 co-localisation immunofluorescence in MEF WT; type: cell-based, mouse
Method: FIG. 6. ULKTACs rely on ULK1 for the redirection of autophagy components to mitochondria and subsequent mitophagic degradation (A) Western blot of mouse embryonic fibroblasts (MEF) WT and MEF ULK1/2^−/− treated with 1 mM ULKTACs, 5 mM CCCP or both and probed for ULK1, Mfn2 and Actin—quantification of the relative intensity of Mfn2 shown in (B), normalised to Actin. Representative immunofluorescence of MEF WT (C) and MEF ULK1/2^−/− (D) treated with 5 mM CCCP, 1 mM ULKTACs or both and immunostained for Alexa 488 ATP5a and Alexa 647 LC3B. Quantification of the colocalised LC3 to ATP5a spot area shown in WT vs ULK1/2^−/− treated MEF cells shown in (E). Data shown are mean±SEM, n=3, *p<0.05, ** p<0.01, *** p<0.001, Two-way ANOVA with Tukey's multiple comparisons test.
For TOM20/ULK1 immunofluorescence, cells were seeded in a 384 well PerkinElmer CellCarrier Ultra plate 24 hours prior to treatment with compounds. Cells were treated for 18 hours after which they were fixed with 4% paraformaldehyde (PFA) in phosphate buffered saline (PBS) and blocked with 10% FBS and 0.1% Triton in PBS. Plates were incubated at 4° C. overnight, with 1:400 mouse anti-TOM20 (Santa Cruz, #sc-17764) and 1:400 rabbit anti-ULK1 (Cell Signalling Technologies, #0854). […]

Row | activation of ULK1 vs BL-918 [1] | SMILES | co-localisation of ATP5a with LC3 [2]
1 | comparable activity | O=C(Nc1cc(C(F)(F)F)cc(C(F)(F)F)c1)N[C@@H](C(=O)Nc1ccc(F)cc1F)c1ccc(OCc2cn(CCOCCOCCNC(=O)C(=O)c3c(-c4ccccc4)[nH]c4ccccc34)nn2)cc1 [NZ-65, (R)-2-(3-(3,5-bis(trifluoromethyl)phenyl)ureido)-N-(2,4-difluorophenyl)-2-(4-((1-(2-(2-(2-(2-oxo-2-(2-phenyl-1H-indol-3-yl)acetamido)ethoxy)ethoxy)ethyl)-1H-1,2,3-triazol-4-yl)methoxy)phenyl) acetamide] | increase in co-localisation
2 | comparable activity | O=C(Nc1cc(C(F)(F)F)cc(C(F)(F)F)c1)N[C@@H](C(=O)Nc1ccc(F)cc1F)c1ccc(OCc2cn(CCCCCCNC(=O)C(=O)c3c(-c4ccccc4)[nH]c4ccccc34)nn2)cc1 [NZ-66, (R)-2-(3-(3,5-bis(trifluoromethyl)phenyl)ureido)-N-(2,4-difluorophenyl)-2-(4-((1-(6-(2-oxo-2-(2-phenyl-1H-indol-3-yl)acetamido)hexyl)-1H-1,2,3-triazol-4-yl)methoxy)phenyl) acetamide] | increase in co-localisation
